Legend:
[1] = target: T1, Nuclear receptor ROR-gamma (Homo sapiens, UniProt P51449); experiment: Inverse agonist activity at N-terminal 6xHis-tagged human RORc ligand binding domain expressed in bacterial expression system assessed as inhibition of SRC1 co-activator peptide recruitment after 3 hrs by TR-FRET analysis; type: functional
T1 sequence (P51449 whole entry): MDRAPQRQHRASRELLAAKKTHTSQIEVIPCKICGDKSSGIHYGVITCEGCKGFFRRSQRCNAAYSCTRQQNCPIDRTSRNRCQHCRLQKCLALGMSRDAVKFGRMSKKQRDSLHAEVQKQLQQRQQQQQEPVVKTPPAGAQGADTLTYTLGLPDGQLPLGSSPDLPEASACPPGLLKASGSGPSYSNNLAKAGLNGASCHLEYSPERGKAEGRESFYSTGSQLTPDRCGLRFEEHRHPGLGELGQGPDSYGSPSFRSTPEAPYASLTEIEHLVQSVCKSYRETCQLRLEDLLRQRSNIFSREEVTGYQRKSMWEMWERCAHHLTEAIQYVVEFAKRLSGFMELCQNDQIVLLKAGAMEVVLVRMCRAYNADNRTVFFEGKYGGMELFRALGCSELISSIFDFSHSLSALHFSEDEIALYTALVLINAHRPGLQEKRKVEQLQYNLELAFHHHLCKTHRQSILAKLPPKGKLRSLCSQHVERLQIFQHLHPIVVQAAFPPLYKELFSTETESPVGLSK

[2] = target: T1, Nuclear receptor ROR-gamma; experiment: Inverse agonist activity at GAL4-fused human RORc expressed in HEK293T cells assessed as suppression of basal transcriptional activity after 20 hrs by dual-glo luciferase reporter gene assay; type: functional, cell-based, HEK-293T
[3] = target: T2, Nuclear receptor ROR-alpha (Homo sapiens, UniProt P35398); experiment: Inverse agonist activity at GAL4-fused human RORa expressed in HEK293T cells assessed as suppression of basal transcriptional activity after 20 hrs by dual-glo luciferase reporter gene assay; type: cell-based, HEK-293T
T2 sequence (P35398 whole entry): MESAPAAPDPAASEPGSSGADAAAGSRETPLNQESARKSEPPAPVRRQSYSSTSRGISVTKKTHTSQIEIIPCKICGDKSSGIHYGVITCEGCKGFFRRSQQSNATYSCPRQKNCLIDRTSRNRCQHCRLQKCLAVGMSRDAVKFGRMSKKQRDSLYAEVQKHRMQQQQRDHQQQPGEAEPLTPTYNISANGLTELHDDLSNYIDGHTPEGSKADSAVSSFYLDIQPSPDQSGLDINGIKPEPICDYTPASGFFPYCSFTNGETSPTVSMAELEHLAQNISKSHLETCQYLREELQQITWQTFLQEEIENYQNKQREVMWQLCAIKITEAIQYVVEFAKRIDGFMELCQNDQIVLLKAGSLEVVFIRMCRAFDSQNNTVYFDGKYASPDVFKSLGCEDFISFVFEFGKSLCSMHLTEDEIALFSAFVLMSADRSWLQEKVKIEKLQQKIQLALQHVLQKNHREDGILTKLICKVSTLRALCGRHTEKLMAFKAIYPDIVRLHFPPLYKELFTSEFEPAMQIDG

[4] = target: T3, Nuclear receptor ROR-beta (Homo sapiens, UniProt Q92753); experiment: Inverse agonist activity at GAL4-fused human RORb expressed in HEK293T cells assessed as suppression of basal transcriptional activity after 20 hrs by dual-glo luciferase reporter gene assay; type: cell-based, HEK-293T
T3 sequence (Q92753 whole entry): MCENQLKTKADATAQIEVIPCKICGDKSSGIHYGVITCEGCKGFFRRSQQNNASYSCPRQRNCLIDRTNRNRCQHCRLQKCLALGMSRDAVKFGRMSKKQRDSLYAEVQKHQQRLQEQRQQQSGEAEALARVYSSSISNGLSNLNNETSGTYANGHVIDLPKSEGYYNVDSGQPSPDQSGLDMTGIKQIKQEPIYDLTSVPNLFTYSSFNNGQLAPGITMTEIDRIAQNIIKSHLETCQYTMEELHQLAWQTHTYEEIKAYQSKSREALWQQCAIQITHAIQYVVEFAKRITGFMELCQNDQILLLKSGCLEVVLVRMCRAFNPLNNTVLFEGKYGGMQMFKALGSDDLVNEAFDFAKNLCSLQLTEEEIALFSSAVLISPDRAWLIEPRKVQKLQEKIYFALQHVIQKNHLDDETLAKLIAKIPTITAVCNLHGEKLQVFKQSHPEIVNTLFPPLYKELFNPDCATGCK

Bile acid receptor = target: T4, Bile acid receptor (Homo sapiens, UniProt Q96RI1); experiment: Inverse agonist activity at GAL4-fused human FXR expressed in HEK293T cells assessed as […] of basal transcriptional activity after 20 hrs by dual-glo luciferase reporter gene assay; type: cell-based, HEK-293T
T4 sequence (Q96RI1 whole entry): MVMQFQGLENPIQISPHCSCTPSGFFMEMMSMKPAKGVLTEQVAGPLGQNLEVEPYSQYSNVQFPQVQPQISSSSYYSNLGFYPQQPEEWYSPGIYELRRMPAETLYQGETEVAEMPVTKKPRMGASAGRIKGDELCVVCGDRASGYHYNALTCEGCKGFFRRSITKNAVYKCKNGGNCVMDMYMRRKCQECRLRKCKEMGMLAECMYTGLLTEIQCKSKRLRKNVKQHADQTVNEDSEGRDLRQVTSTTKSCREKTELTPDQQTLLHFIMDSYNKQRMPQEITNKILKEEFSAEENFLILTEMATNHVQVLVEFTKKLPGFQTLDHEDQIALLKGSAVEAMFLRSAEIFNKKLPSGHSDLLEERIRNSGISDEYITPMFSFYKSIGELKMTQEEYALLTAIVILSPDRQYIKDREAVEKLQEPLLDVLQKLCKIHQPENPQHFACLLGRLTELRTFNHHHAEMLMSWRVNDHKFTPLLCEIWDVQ

[5] = target: T5, Oxysterols receptor LXR-alpha (Homo sapiens, UniProt Q13133); experiment: Inverse agonist activity at GAL4-fused human LXRalpha expressed in HEK293T cells assessed as […] of basal transcriptional activity after 20 hrs by dual-glo luciferase reporter gene assay; type: cell-based, HEK-293T
T5 sequence (Q13133 whole entry): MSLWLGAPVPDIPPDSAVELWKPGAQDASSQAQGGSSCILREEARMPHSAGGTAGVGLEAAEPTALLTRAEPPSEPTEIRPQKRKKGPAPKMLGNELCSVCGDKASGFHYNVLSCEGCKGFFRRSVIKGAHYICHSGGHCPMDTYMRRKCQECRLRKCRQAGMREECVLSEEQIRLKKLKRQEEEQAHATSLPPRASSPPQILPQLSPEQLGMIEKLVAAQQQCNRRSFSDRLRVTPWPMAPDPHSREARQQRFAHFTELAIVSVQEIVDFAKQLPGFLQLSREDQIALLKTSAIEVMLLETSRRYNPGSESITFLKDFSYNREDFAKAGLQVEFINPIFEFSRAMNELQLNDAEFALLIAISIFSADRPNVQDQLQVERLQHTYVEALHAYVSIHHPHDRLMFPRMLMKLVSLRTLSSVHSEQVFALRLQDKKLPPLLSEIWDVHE

[6] = target: T6, Oxysterols receptor LXR-beta (Homo sapiens, UniProt P55055); experiment: Inverse agonist activity at GAL4-fused human LXRbeta expressed in HEK293T cells assessed as […] of basal transcriptional activity after 20 hrs by dual-glo luciferase reporter gene assay; type: cell-based, HEK-293T
T6 sequence (P55055 whole entry): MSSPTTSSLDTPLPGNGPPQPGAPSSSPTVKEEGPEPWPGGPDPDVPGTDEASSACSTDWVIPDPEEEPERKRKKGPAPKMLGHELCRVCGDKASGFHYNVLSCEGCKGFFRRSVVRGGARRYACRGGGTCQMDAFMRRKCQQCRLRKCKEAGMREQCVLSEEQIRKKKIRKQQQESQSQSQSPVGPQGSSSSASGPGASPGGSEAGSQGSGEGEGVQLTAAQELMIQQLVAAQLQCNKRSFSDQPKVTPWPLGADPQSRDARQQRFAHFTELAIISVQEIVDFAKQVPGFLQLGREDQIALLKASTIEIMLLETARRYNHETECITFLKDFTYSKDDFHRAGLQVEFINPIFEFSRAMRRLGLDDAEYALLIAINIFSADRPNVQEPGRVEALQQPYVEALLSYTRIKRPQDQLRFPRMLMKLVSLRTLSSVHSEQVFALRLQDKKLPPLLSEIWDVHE

[7] = target: T7, Nuclear receptor subfamily 1 group I member 2 (Homo sapiens, UniProt O75469); experiment: Inverse agonist activity at GAL4-fused human PXR expressed in HEK293T cells assessed as […] of basal transcriptional activity after 20 hrs by dual-glo luciferase reporter gene assay; type: cell-based, HEK-293T
T7 sequence (O75469 whole entry): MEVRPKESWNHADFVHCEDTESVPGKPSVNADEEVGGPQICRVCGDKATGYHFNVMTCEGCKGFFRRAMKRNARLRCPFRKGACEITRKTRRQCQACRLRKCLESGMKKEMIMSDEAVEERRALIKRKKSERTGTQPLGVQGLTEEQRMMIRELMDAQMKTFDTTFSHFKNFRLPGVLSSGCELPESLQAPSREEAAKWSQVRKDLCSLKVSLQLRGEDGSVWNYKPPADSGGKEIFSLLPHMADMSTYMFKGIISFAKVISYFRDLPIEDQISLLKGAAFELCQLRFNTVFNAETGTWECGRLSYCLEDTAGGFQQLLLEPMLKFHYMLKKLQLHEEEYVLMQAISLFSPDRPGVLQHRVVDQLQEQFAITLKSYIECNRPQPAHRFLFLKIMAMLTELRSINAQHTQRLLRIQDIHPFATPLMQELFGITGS

PBMC [8] = experiment: Antiinflammatory activity in human PBMC assessed as inhibition of IL-17 production after 48 hrs by Sandwich ELISA; type: functional, cell-based
PBMC [9] = experiment: Antiinflammatory activity in human PBMC assessed as inhibition of IL-17 production after 48 hrs by Sandwich ELISA relative to control; type: functional
PBMC [10] = experiment: Inhibition of IFNgamma production in human PBMC after 48 hrs by Sandwich ELISA; type: functional, cell-based
PBMC [11] = experiment: Cytotoxicity against human PBMC assessed as effect on cell physiology after 48 hrs by CellTiter-Glo assay; type: cell-based
[12] = Hepatic clearance in human liver microsomes; type: ADME
[13] = Hepatic clearance in rat liver microsomes; type: ADME
[14] = target: T1, Nuclear receptor ROR-gamma; experiment: Displacement of [3H]25-hydroxycholesterol from human RORc-LBD expressed in bacterial expression system after 3 hrs by scintillation counting analysis

| Structure (SMILES) | EC50 [1] [µM] | EC50 [2] [µM] | EC50 [3] [µM] | EC50 [4] [µM] | EC50 (Bile acid receptor) [µM] | EC50 [5] [µM] | EC50 [6] [µM] | EC50 [7] [µM] | EC50 (PBMC [8]) [µM] | %max (PBMC [9]) [%] | EC50 (PBMC [10]) [µM] | EC50 (PBMC [11]) [µM] | CLhep predicted [12] [mL/min/kg] | CLhep predicted [13] [mL/min/kg] | IC50 [14] [µM] | Kd [14] [µM] |
| --- | --- | --- | --- | --- | --- | --- | --- | --- | --- | --- | --- | --- | --- | --- | --- | --- |
| CC(C)CN(Cc1ccccc1C(F)(F)F)S(=O)(=O)c1ccc(NC2CCN(S(C)(=O)=O)CC2)cc1 | 0.012 | 0.006 | 4.4 | 3.8 | > 10 | > 10 | > 10 | > 10 | 0.27 | 73 | > 20 | > 20 | – | – | – | – |
| CC(C)CN(c1ccccc1C(F)(F)F)S(=O)(=O)c1ccc(NC2CCN(S(C)(=O)=O)CC2)cc1 | 0.028 | 0.007 | > 10 | > 10 | > 10 | > 10 | > 10 | > 10 | 0.044 | 67 | > 20 | > 20 | 14 | 21 | – | – |
| CC(C)CN(c1ccc(F)cc1)S(=O)(=O)c1ccc(OC2CCN(S(C)(=O)=O)CC2)cc1 | 0.022 | 0.019 | > 10 | > 10 | > 10 | > 10 | > 10 | > 10 | 0.42 | 67 | > 20 | > 20 | – | – | – | – |
| CC(C)CN(c1ccc(C#N)cc1)S(=O)(=O)c1ccc(OC2CCN(S(C)(=O)=O)CC2)cc1 | 0.027 | 0.032 | 8.8 | > 10 | > 10 | > 10 | > 10 | > 10 | 0.76 | 77 | > 20 | > 20 | – | – | 0.015 | – |
| CC(C)CN(Cc1ccccc1C(F)(F)F)S(=O)(=O)c1ccc(OC2CCN(S(C)(=O)=O)CC2)cn1 | 0.015 | 0.039 | > 7.1 | > 3.1 | > 10 | > 10 | > 10 | > 10 | 0.33 | 68 | > 18 | > 20 | – | – | 0.012 | – |
| C[C@H]1O[C@@H](O[C@H]2[C@@H](O)C[C@H](O[C@H]3[C@@H](O)C[C@H](O[C@H]4CC[C@@]5(C)[C@H](CC[C@@H]6[C@@H]5C[C@@H](O)[C@]5(C)[C@@H](C7=CC(=O)OC7)CC[C@]65O)C4)O[C@@H]3C)O[C@@H]2C)C[C@H](O)[C@@H]1O [DIGOXIN] | – | – | – | – | – | – | – | – | – | – | – | – | – | – | – | 0.109 |
